Laboratory results: US9562053B2, “Benzo-fused heterocyclic derivatives useful as agonists of GPR120” (Janssen Pharmaceutica NV, priority 2013, dated 2017)

biological target: T1, Human GPR120 short form (Homo sapiens, UniProt Q5NUL3); assay: Human GPR120 in Calcium Flux Assay, Procedure Calcium A (2500 cells/well); assay type: cell-based
T1 construct: expressed in transfected cells
T1 sequence (Q5NUL3 1-361): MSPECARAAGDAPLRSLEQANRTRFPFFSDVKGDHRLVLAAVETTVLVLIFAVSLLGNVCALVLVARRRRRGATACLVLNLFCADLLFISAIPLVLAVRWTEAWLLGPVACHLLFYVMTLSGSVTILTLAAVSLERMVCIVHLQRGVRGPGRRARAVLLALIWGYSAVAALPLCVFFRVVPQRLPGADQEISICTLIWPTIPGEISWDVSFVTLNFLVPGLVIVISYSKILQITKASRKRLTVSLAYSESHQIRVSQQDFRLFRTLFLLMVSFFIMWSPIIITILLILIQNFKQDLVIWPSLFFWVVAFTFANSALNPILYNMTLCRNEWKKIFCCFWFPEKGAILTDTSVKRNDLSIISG
How it was run: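 HEK293 cells stably expressing GPR120 short isoform, 2500 cells/well, serum-starved 1 h, loaded with Fluo-4 NW plus probenecid (30 min 37 °C, 15 min RT). Compounds prepared at 0.012–100 μM, 0.2% DMSO final. FLIPR calcium signal over 300 s as Fmax−Fmin; EC50 from variable-slope fit (Hill <2).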

Going from `Cc1nc2c(COc3ccc(CCC(=O)O)c(C)c3C)cc(Cl)cc2s1` [Compound 98, 3-{4-[(6-Chloro-2-methyl-1,3-benzothiazol-4-yl)methoxy]-2,3-dimethylphenyl}propanoic acid] to `Cc1c(CCC(=O)O)ccc(OCc2cc(Cl)cc3cn(C)nc23)c1C` [Compound 8, 3-{4-[(5-Chloro-2-methyl-2H-indazol-7-yl)methoxy]-2,3-dimethylphenyl}propanoic acid], the EC50 rises from 18 nM to 297 nM (16-fold).

Compared with `CCc1cc2ccc(OC(F)F)c(COc3ccc(CCC(=O)O)c(C)c3C)c2o1` [Compound 70, 3-(4-{[6-(Difluoromethoxy)-2-ethyl-1-benzofuran-7-yl]methoxy}-2,3-dimethylphenyl)propanoic acid], `CCc1cc2cc(Cl)c(OC(F)F)c(COc3ccc(CCC(=O)O)c(C)c3C)c2o1` [Compound 69, 3-(4-{[5-Chloro-6-(difluoromethoxy)-2-ethyl-1-benzofuran-7-yl]methoxy}-2,3-dimethylphenyl)propanoic acid] is 3.6-fold lower in EC50: 162 nM for the first, 45 nM for the second.

First: CCOc1cc(COc2ccc(CCC(=O)O)c(C)c2C)c2oc(CC)cc2c1 [Compound 29, 3-{4-[(5-Ethoxy-2-ethyl-1-benzofuran-7-yl)methoxy]-2,3-dimethylphenyl}propanoic acid]
Second: CCc1cc2cc(Br)cc(COc3ccc(CCC(=O)O)c(C)c3C)c2o1 [Compound 45, 3-{4-[(5-Bromo-2-ethyl-1-benzofuran-7-yl)methoxy]-2,3-dimethylphenyl}propanoic acid]
The EC50 of the first is 4.5-fold higher: 107 nM for the first, 24 nM for the second. The second is the more potent here.

First: Cc1cc2c(COc3ccc(CCC(=O)O)c(C)c3C)cc(Cl)cc2o1 [Compound 81, 3-{4-[(6-Chloro-2-methyl-1-benzofuran-4-yl)methoxy]-2,3-dimethylphenyl}propanoic acid]
Second: Cc1cc2cc(Cl)cc(COc3ccc(CCC(=O)O)c(C)c3C)c2o1 [Compound 78, 3-{4-[(5-Chloro-2-methyl-1-benzofuran-7-yl)methoxy]-2,3-dimethylphenyl}propanoic acid]
The EC50 of the first is 6.8-fold higher: 136 nM for the first, 20 nM for the second. The second is the more potent here.

`Cc1c(CCC(=O)O)ccc(OCc2cc(F)cc3cc(C(F)(F)F)oc23)c1C` [Compound 4, 3-(4-{[5-Fluoro-2-(trifluoromethyl)-1-benzofuran-7-yl]methoxy}-2,3-dimethylphenyl)propanoic acid] and `Cc1c(CCC(=O)O)ccc(OCc2cc(F)cc3cc(C(F)F)oc23)c1C` [Compound 32, 3-(4-{[2-(Difluoromethyl)-5-fluoro-1-benzofuran-7-yl]methoxy}-2,3-dimethylphenyl)propanoic acid] are within 1.5-fold of each other in EC50: 279 nM for the first, 277 nM for the second.

`CCCc1cc2cc(OC(F)(F)F)cc(COc3ccc(CCC(=O)O)c(C)c3C)c2o1` [Compound 35, 3-(2,3-Dimethyl-4-{[2-propyl-5-(trifluoromethoxy)-1-benzofuran-7-yl]methoxy}phenyl)propanoic acid] and `CCCc1cc2cc(C(F)(F)F)cc(COc3ccc(CCC(=O)O)c(C)c3C)c2o1` [Compound 37, 3-(2,3-Dimethyl-4-{[2-propyl-5-(trifluoromethyl)-1-benzofuran-7-yl]methoxy}phenyl)propanoic acid] are within 1.5-fold of each other in EC50: 40 nM for the first, 43 nM for the second.

Going from `Cc1cc2cc(Cl)cc(COc3c(F)cc(CCCO)cc3F)c2s1` [Compound 93, 3-{4-[(5-Chloro-2-methyl-1-benzothiophen-7-yl)methoxy]-3,5-difluorophenyl}propan-1-ol] to `CCCc1cc2cc(Cl)cc(COc3ccc(CCC(=O)O)c(F)c3F)c2o1` [Compound 59, 3-{4-[(5-Chloro-2-propyl-1-benzofuran-7-yl)methoxy]-2,3-difluorophenyl}propanoic acid], the EC50 falls from 1600 nM to 93 nM (17-fold). The second is the more potent here.

First: Cc1c(CCC(=O)O)ccc(OCc2cc(OC(F)(F)F)cc3cc(C=CF)oc23)c1C (mixture of isomers) [Compound 97, 3-(4-{[2-(2-Fluoroethenyl)-5-(trifluoromethoxy)-1-benzofuran-7-yl]methoxy}-2,3-dimethylphenyl)propanoic acid]
Second: Cc1c(CCC(=O)O)ccc(OCc2cc(Cl)cc3cc(C=CF)oc23)c1C (mixture of isomers) [Compound 88, 3-(4-((5-Chloro-2-(2-fluorovinyl)benzofuran-7-yl)methoxy)-2,3-dimethylphenyl)propanoic acid]
The EC50 of the first is 7.3-fold lower: 20 nM for the first, 147 nM for the second.

`Cc1cc2cc(OC(F)(F)F)cc(COc3ccc(CCC(=O)O)c4c3CCC4)c2o1` [Compound 55, 3-(7-{[2-Methyl-5-(trifluoromethoxy)-1-benzofuran-7-yl]methoxy}-2,3-dihydro-1H-inden-4-yl)propanoic acid] and `CCc1cc2cc(OC(F)(F)F)cc(COc3ccc(CCC(=O)O)c4c3CCC4)c2o1` [Compound 52, 3-(7-{[2-Ethyl-5-(trifluoromethoxy)-1-benzofuran-7-yl]methoxy}-2,3-dihydro-1H-inden-4-yl)propanoic acid] are within 1.5-fold of each other in EC50: 28 nM for the first, 29 nM for the second.

Compared with `Cc1c(CCC(=O)O)ccc(OCc2cc(F)cc3cc(C#N)oc23)c1C` [Compound 49, 3-{4-[(2-Cyano-5-fluoro-1-benzofuran-7-yl)methoxy]-2,3-dimethylphenyl}propanoic acid], `Cc1oc2c(COc3ccc(CCC(=O)O)c(C)c3C)cc(F)cc2c1F` [Compound 5, 3-{4-[(3,5-Difluoro-2-methyl-1-benzofuran-7-yl)methoxy]-2,3-dimethylphenyl}propanoic acid] is 5.2-fold higher in EC50: 237 nM for the first, 1240 nM for the second. The first is the more potent here.

Going from `CC#Cc1cc(COc2ccc(CCC(=O)O)c(C)c2C)c2oc(C)cc2c1` [Compound 83, 3-{2,3-Dimethyl-4-[(2-methyl-5-prop-1-yn-1-yl-1-benzofuran-7-yl)methoxy]phenyl}propanoic acid] to `Cc1cc2cc(OC(F)F)cc(COc3ccc(CCC(=O)O)c(C)c3C)c2o1` [Compound 76, 3-(4-{[5-(Difluoromethoxy)-2-methyl-1-benzofuran-7-yl]methoxy}-2,3-dimethylphenyl)propanoic acid], the EC50 falls from 51 nM to 20 nM (2.5-fold). The second is the more potent here.

Compared with `CCc1cc2cc(Cl)c(OCC(F)(F)F)c(COc3ccc(CCC(=O)O)c(C)c3C)c2o1` [Compound 64, 3-(4-{[5-Chloro-2-ethyl-6-(2,2,2-trifluoroethoxy)-1-benzofuran-7-yl]methoxy}-2,3-dimethylphenyl)propanoic acid], `CCc1cc2cc(Cl)c(OC(C)C)c(COc3ccc(CCC(=O)O)c(C)c3C)c2o1` [Compound 65, 3-(4-{[5-Chloro-2-ethyl-6-(1-methylethoxy)-1-benzofuran-7-yl]methoxy}-2,3-dimethylphenyl)propanoic acid] is 1.7-fold higher in EC50: 56 nM for the first, 96 nM for the second. The first is the more potent here.

Compared with `Cc1cc2c(F)c(OC(F)(F)F)c(F)c(COc3ccc(CCC(=O)O)c(C)c3C)c2o1` [Compound 71, 3-(4-{[4,6-Difluoro-2-methyl-5-(trifluoromethoxy)-1-benzofuran-7-yl]methoxy}-2,3-dimethylphenyl)propanoic acid], `Cc1cc2cc(Cl)c(C)c(COc3ccc(CCC(=O)O)c(C)c3C)c2o1` [Compound 85, 3-{4-[(5-Chloro-2,6-dimethyl-1-benzofuran-7-yl)methoxy]-2,3-dimethylphenyl}propanoic acid] is 4.3-fold lower in EC50: 64 nM for the first, 15 nM for the second.

Compared with `CCCc1cc2cc(Cl)cc(COc3ccc(CCC(=O)O)c(C)c3C)c2o1` [Compound 31, 3-{4-[(5-Chloro-2-propyl-1-benzofuran-7-yl)methoxy]-2,3-dimethylphenyl}propanoic acid], `CCCc1cc2cc(I)cc(COc3ccc(CCC(=O)O)c(C)c3C)c2o1` [Compound 47, 3-{4-[(5-Iodo-2-propyl-1-benzofuran-7-yl)methoxy]-2,3-dimethylphenyl}propanoic acid] is 2-fold lower in EC50: 44 nM for the first, 22 nM for the second.

Going from `CCCc1cc2cc(OC(F)F)cc(COc3ccc(CCC(=O)O)c(C)c3C)c2o1` [Compound 77, 3-(4-{[5-(Difluoromethoxy)-2-propyl-1-benzofuran-7-yl]methoxy}-2,3-dimethylphenyl)propanoic acid] to `Cc1c(CCC(=O)O)ccc(OCc2cc(Cl)cc3cc(CC(F)F)oc23)c1C` [Compound 87, 3-(4-{[5-Chloro-2-(2,2-difluoroethyl)-1-benzofuran-7-yl]methoxy}-2,3-dimethylphenyl)propanoic acid], the EC50 rises from 28 nM to 79 nM (2.8-fold). The first is the more potent here.

Going from `CCCc1cc2cc(Cl)cc(COc3ccc(CCC(=O)O)c(C)c3C#N)c2o1` [Compound 41, 3-{4-[(5-Chloro-2-propyl-1-benzofuran-7-yl)methoxy]-3-cyano-2-methylphenyl}propanoic acid] to `CCc1cc2cc(Cl)cc(COc3ccc(CCC(=O)O)c4c3CCC4)c2o1` [Compound 54, 3-{7-[(5-Chloro-2-ethyl-1-benzofuran-7-yl)methoxy]-2,3-dihydro-1H-inden-4-yl}propanoic acid], the EC50 falls from 291 nM to 36 nM (8.1-fold). The second is the more potent here.

`Cc1cc2cc3c(c(COc4ccc(CCC(=O)O)c(C)c4C)c2o1)OC(F)(F)O3` [Compound 89, 3-{4-[(2,2-Difluoro-6-methylfuro[2,3-f][1,3]benzodioxol-4-yl)methoxy]-2,3-dimethylphenyl}propanoic acid] and `CCc1cc2cc(Cl)c(CC)c(COc3ccc(CCC(=O)O)c(C)c3C)c2o1` [Compound 61, 3-{4-[(5-Chloro-2,6-diethyl-1-benzofuran-7-yl)methoxy]-2,3-dimethylphenyl}propanoic acid] are within 1.5-fold of each other in EC50: 17 nM for the first, 24 nM for the second.

Compared with `CCCc1cc(OCc2cc(OC(F)(F)F)cc3cc(CC)oc23)c(F)cc1CCC(=O)O` [Compound 50, 3-(4-{[2-Ethyl-5-(trifluoromethoxy)-1-benzofuran-7-yl]methoxy}-5-fluoro-2-propylphenyl)propanoic acid], `Cc1oc2cc(Cl)cc(COc3ccc(CCC(=O)O)c(C)c3C)c2c1C` [Compound 80, 3-{4-[(6-Chloro-2,3-dimethyl-1-benzofuran-4-yl)methoxy]-2,3-dimethylphenyl}propanoic acid] is 2.6-fold higher in EC50: 59 nM for the first, 151 nM for the second. The first is the more potent here.
